Test [1] relates to trinitrobenzenesulfonic acid (TNBS)-induced colitis. Kind of test: Colonic length and macroscopic appearance in TNBS-induced chronic colitis. In kind it is in vivo, rat. On the procedure:
(§1) Chronic colitis was induced by weekly rectal injections of increasing doses of TNBS over 6 weeks (15, 30, 45, 60, 60, and 60 mg from day 0 to day 35), as previously described (4,12). Briefly, after food deprivation for 24 h, rats were anesthetized with an intraperitoneal injection of 1% isoflurane. TNBS was dissolved in ethanol (50%) and instilled into the colon using a cannula (0.25 mL), and then the rats were held upside down for 3 min to prevent escape of the intracolonic TNBS. Roflumilast was dissolved in dimethyl sulfoxide and diluted in 0.5% carboxymethyl cellulose sodium to a final concentration of 5.0 mg·kg^−1·day^−1 as previously described (13). Five groups of rats (n=8) were established: normal control (NC group), TNBS-treated (TNBS group, positive control), and three TNBS-treated groups that received oral sulfasalazine (SS group, 500 mg/kg) (14), oral roflumilast (by gastric gavage, OR group, 5 mg/kg), or rectal roflumilast (RR group, 5 mg/kg). Treatments were administered once daily in a volume of 200 μL for 15 days starting 48 h after the induction of colitis (from day 37) (15), and the control rats received equal amounts of vehicle. At the end of the treatment period, the rats were evaluated with the colitis activity score. To detect the effects of the treatments on systemic inflammatory processes, blood was collected for measurements of the proinflammatory mediators TNF-α, IL-2, and IL-6. At the end of the 15-day treatment period, the rats were sacrificed by cervical dislocation, and the colon was isolated, cleaned of feces, and measured for weight and length. Colonic myeloperoxidase (MPO) activity and glutathione (GSH) and malonaldehyde (MDA) levels were measured. The colon was examined macroscopically for gross changes and microscopically in sections stained with hematoxylin and eosin (H&E), Masson trichrome, and Periodic Acid Schiff (PAS) stains as well as KI-67 and TNF-α immunostaining. After the rats were sacrificed, their colon was excised, and its length was measured. The appearance of the colon regarding edema, ulceration, and necrosis was evaluated (17).

Test [2] relates to IL-2. Kind of test: Serum IL-2 ELISA in TNBS-induced colitis. In kind it is in vivo, rat. To be noted: means±SE, n = 8. On the procedure: as §1, with “Blood” for “After the rats were sacrificed, their colon”, “collected through cardiac puncture. The serum was obtained” for “excised,”, “stored at −80° C. until analysis. […]” for “its length was measured. The appearance of the colon regarding edema, ulceration, and necrosis was evaluated (17).”
Background: In an ELISA, binding on a coated surface is turned into a signal by an enzyme label.

Test [3] deals with DSS-induced ulcerative colitis. The conditions noted are these: 5 mg/kg, male Wistar rats, cited from earlier work.
In test [4] the test system is TNBS-induced reduction in colon length. To be noted: 1 and 5 mg-kg−1·day−1; another study (13); cited from earlier work.
Where [5] appears, read: oral, once daily for 15 days, sulfasalazine 500 mg/kg, roflumilast 5 mg/kg.
Setting [6] is: rectal, 5 mg/kg once daily for 15 days.
The mark [7] stands for this setting: oral, once daily for 15 days, SS 500 mg/kg, OR 5 mg/kg.

SMILES strings stand for the structures. Marks after values point to notes of the source that are not given here.

For the compound `O=C(Nc1c(Cl)cncc1Cl)c1ccc(OC(F)F)c(OCC2CC2)c1` [roflumilast], in test [1] (setting [5]), the Colonic length entry is “more improvement than rectal roflumilast” and the Colonic macroscopic appearance entry was “moderate to marked improvement”. In test [1] (setting [6]), the Colonic macroscopic appearance entry is “mild improvement”. Also, the “serum level of IL-2” value in test [2] (setting [7]) is on record as 302.75 ± 11.32^g, h, i pg/mL. In test [2] (setting [6]), the “serum level of IL-2” value is 363.87 ± 12.73^g pg/mL. Moreover, in test [3] (compared with the DSS group), the colon length entry is “preserved”, the histological scores entry is reported as “improved”, the severity of colitis entry is given as “diminished” and the weight loss result is recorded as “decreased”. For the same compound, the “colon concentrations of TNF-α and NO, MPO activity, and inducible nitric oxide synthase gene expression” value in test [3] is listed as “decreased”. In test [4], the “TNBS-induced reduction in colon length” value is on record as “partially reverses” and the “elevated colonic concentration of TNF-α” value was “decreases”.
On to `O=C(O)c1cc(/N=N/c2ccc(S(=O)(=O)Nc3ccccn3)cc2)ccc1O` [sulfasalazine], for which, in test [1] (setting [5]), the Colonic length entry was “greatest effect” and the Colonic macroscopic appearance entry is recorded as “marked improvement”. For the same compound, the “serum level of IL-2” value in test [2] (setting [7]) is reported as 257.97 ± 7.72^g pg/mL.

The values are drawn from US20240108610A1, “RECTAL ADMINISTRATION OF ROFLUMILAST FOR THE TREATMENT OF CROHN'S DISEASE” (King Abdulaziz University, priority 2022, published 2024).
